# Reference: patent US20220073857A1, “THREE-DIMENSIONAL SUBSTRATE FOR MICROBIAL CULTURES” (POLITECNICO DI MILANO, priority 2018, published 2022)
# What was measured:
# [1] = Mucous barrier model: ability of molecules to cross a barrier (permeable support, “SUBSTRATE” or Mus^3SUB); type: in vitro ADME; conditions: interactive barrier, mucin in the “SUBSTRATE” (Mus^3SUB); FIG. 4
# Procedure: “SUBSTRATE” and Mus^3SUB with the features referred to in Example 2 were tested for the ability thereof to mimic the mucous barrier.
# The charts in FIG. 4 show the ability of said molecules to cross a barrier, where the barrier consists of a permeable support, “SUBSTRATE” or Mus^3SUB.
# [2] = cited from earlier work
transition of the drug across the barrier [1],SMILES,pKa [2],log D7.4 ([2]; pH 7.4)
very quick,CC1=C(C(=O)O)N2C(=O)[C@@H](NC(=O)[C@H](N)c3ccccc3)[C@H]2SC1 [Cefalexin],,
slowed,COc1cccc2c1C(=O)c1c(O)c3c(c(O)c1C2=O)C[C@@](O)(C(=O)CO)C[C@@H]3O[C@H]1C[C@H](N)[C@@H](O)[C@H](C)O1 [Epirubicin],8.01,0.03
